Test results taken from patent US10807994B2, “Heterocyclic compounds and uses thereof” (NUVATION BIO INC., priority 2017, dated 2020).

Assays:
A427 cells [1] = test: Cytotoxicity assay (resazurin), A427 cells, 72 hr; format: cell-based; settings: Homo sapiens, A-427, read-out: Cell Viability A427 IC50
Summary of the method: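 Cells seeded at 1500 per well, grown 24 hr at 37° C, 5% CO2, then exposed to serially diluted compounds for 72–96 hr before 4–6 hr with 1 mM resazurin (Ex 535/Em 590 nm). Blank-subtracted signal normalised to DMSO control; percent inhibition used for IC50.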

A549 cells = test: Cytotoxicity assay (resazurin), A549 cells, 96 hr; format: cell-based; settings: Homo sapiens, read-out: Cell Viability A549 IC50
Procedure: A549 (CCL-185; ATCC) and A427 (HTB-53; ATCC), both lung epithelial cell lines were seeded in their respective medium (DMEM/MEM, 10569044/41090101; Gibco) at a cell count of 1500 cells per 100 μL per well in a 96 well edge plate (167425; ThermoFisher). Cells were allowed to grow at 37° C. for 24 hr in 5% CO2 environment (culture conditions) in a Nuaire incubator (humidified). Serially diluted test compounds (100 μL) within the desired testing concentration ranges were added to the culture plate were further incubated in culture conditions for 72 hr and 96 hr for A427 and A549 respectively. The experiment was terminated at the designated incubation time by replacing the medium with 100 μL of 1 mM of resazurin (R7017; Sigma) prepared in respective culture medium, and the plates were further incubated in culture conditions for 4-6 hr. Fluorescence was recorded using a multimodal plate reader (Biotek Synergy Neo) at an excitation wavelength of 535 nm and emission wavelength of 590 nm to obtain relative fluorescence units. Data analysis was done by subtracting the background fluorescence (only medium blank) value from each reading and then normalizing with the vehicle control (DMSO treated cells) to obtain percent survival/proliferation. Percent survival was then subtracted by 100 to get the percent inhibition of proliferation which was used to calculate IC50 values. Potency of compounds in other cell lines (As-Pc-1, Panc-10.05, MDAMB231, A172) was determined in an analogous manner.

LoVo cells = test: Cell proliferation assay (Cell Titer-Glo), LoVo cells; format: cell-based; settings: Homo sapiens, typically 72 hrs post-treatment
Procedure: (§1) The effects of test compounds were studied in five cell lines with various histotypes. The cancer cells (Table 4) were harvested during the logarithmic growth period and counted. Adjust cell concentrations to the appropriated number with respective medium, and add 90 μL cell suspensions to 96-well plates. After cells were seeded, the plates were shaken gently to distribute cells evenly and incubated at 37° C., 5% CO2 on day 1.
(§2) Cells were treated with test compounds at 9 concentrations within a desired concentration range (e.g. 1.5 nM-10 μM) on day 2 by series diluting the test compound stock solution (10 mM in DMSO) with culture medium. Cell viability was assessed by Cell Titer-Glo® as recommended by Promega (Cat. No.: G7572, Promega) typically 72 hrs post-treatment.
(§3) Cell viability data were plotted using GraphPad Prism (version 5, GraphPad Software, Inc., San Diego, Calif.). In addition, a nonlinear regression model with a sigmoidal dose response and variable slope within GraphPad Prism was used to calculate the IC50 value of individual test compounds.

NCI-H460 cells = test: Cell proliferation assay (Cell Titer-Glo), NCI-H460 cells; format: cell-based; settings: Homo sapiens, typically 72 hrs post-treatment
Procedure: as §1, §2, §3

HCT-116 cells = test: Cell proliferation assay (Cell Titer-Glo), HCT-116 cells; format: cell-based; settings: Homo sapiens, typically 72 hrs post-treatment, read-out: IC50 HCT116
Procedure: as §1, §2, §3

A427 cells [2] = test: Cell proliferation assay (Cell Titer-Glo), A427 cells; format: cell-based; settings: Homo sapiens, A-427, typically 72 hrs post-treatment
Procedure: as §1, §2, §3

WEE1 kinase enzyme = WEE1 kinase enzyme (Homo sapiens (Human), UniProt P30291); test: WEE1 IC50 determination, LanthaScreen Terbium labeled TR-FRET kinase assay; format: biochemical; settings: WEE1 enzyme 1 nM
WEE1 kinase enzyme, sequence (P30291 whole entry): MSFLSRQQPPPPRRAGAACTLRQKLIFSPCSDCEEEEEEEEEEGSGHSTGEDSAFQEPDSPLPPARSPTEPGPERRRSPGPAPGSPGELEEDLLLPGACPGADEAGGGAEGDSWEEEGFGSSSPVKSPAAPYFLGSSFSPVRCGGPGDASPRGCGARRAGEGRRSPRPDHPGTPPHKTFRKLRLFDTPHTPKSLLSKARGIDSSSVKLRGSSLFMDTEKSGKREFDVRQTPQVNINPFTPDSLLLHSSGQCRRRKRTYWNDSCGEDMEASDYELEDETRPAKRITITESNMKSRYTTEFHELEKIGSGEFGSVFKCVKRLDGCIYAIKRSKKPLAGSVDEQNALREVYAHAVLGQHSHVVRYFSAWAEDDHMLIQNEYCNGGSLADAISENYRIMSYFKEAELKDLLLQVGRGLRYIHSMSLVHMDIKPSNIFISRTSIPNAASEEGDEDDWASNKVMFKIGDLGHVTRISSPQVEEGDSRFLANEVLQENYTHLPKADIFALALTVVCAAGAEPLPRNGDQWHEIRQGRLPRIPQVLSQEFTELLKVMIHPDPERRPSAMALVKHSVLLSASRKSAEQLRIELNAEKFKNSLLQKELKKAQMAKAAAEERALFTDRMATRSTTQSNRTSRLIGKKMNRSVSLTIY
Summary of the method: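 Human WEE1 (1 nM) was preincubated 10 min with 3-fold diluted compounds, then ATP ([…]) and fluorescent PolyGT substrate (200 nM) were added for 1 h at room temperature in the dark. Terbium antibody/EDTA stop, TR-FRET read (ex 340, em 495/520 nm); IC50 from four-parameter logistic fit of percent inhibition.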

CDC2 at Tyr15 residue = settings: in combination with gemcitabine, carboplatin, or cisplatin; cited from earlier work

Row | Structure (SMILES) | IC50 (A427 cells [1]) | IC50 (A549 cells) | IC50 (LoVo cells) | IC50 (NCI-H460 cells) | IC50 (HCT-116 cells) | IC50 (A427 cells [2]) | IC50 (WEE1 kinase enzyme) | Phosphorylation of CDC2 at Tyr15 (CDC2 at Tyr15 residue)
1 | CC1(C)CN(C(=O)CO)Cc2cc(Nc3ncc4c(n3)OCN(c3c(Cl)cccc3Cl)C4=O)ccc21 [Example 1.3] | 4.52 µM | 2.99 µM | 8.26 µM | > 10 µM | 8.12 µM | 5.98 µM | 0.04 µM | –
2 | C=CCn1c(=O)c2cnc(Nc3ccc(N4CCN(C)CC4)cc3)nc2n1-c1cccc(C(C)(C)O)n1 [MK-1775, 1,2-allyl-1-(6-(2-hydroxypropan-2-yl)pyridin-2-yl)-6-((4-(4methylpiperazin-1-yl)phenyl)amino)-1H-pyrazolo[3,4-d]pyrimidin-3 (2H)-one] | – | – | – | – | – | – | – | abolished the phosphorylation of CDC2 at Tyr15 residue
